Tests used:
S. pneumoniae ATCC 49619 = assay: MIC, NCCLS broth microdilution assay; type: cell-based, Streptococcus pneumoniae; conditions: S. pneumoniae ATCC 49619
S. aureus ATCC 13709 = assay: MIC, NCCLS broth microdilution assay; type: cell-based, Staphylococcus aureus; conditions: S. aureus ATCC 13709, methicillin sensitive strain (MSSA)
[1] = tested on: E. faecium (ATCC 51559, VRE); conditions: E. faecium ATCC 51559, vancomycin resistant strain (VRE)
Source text: (§1) In vitro biological activity data were collected for a variety of microorganisms, including Bacillus cereus (ATCC 11778), Staphylococcus aureus (ATCC 33591; ATCC 27660, a methicillin resistant strain (MRSA); ATCC 13709, a methicillin sensitive strain (MSSA)), Escherichia coli (ATCC 25922), Enterococcus faecalis (ATCC 29212), Streptococcus pneumoniae (ATCC 49619; ATCC 51422, a penicillin resistant strain (PRSP)), Enterococcus faecium (ATCC 51559, a vancomycin resistant strain (VRE)), and Staphylococcus epidermidis (ATCC 12228). Additionally, antifungal activity data were collected for Candida albicans (ATCC 38247).
(§2) Compounds according to this invention were screened for their in vitro activities against selected species of bacteria and fungi. The minimal inhibition concentration (MIC) of these compounds was determined using the National Committee for Clinical Laboratory Standards (NCCLS) broth microdilution assay in microtiter plates, as set forth in: (1) the guidelines of the National Committee for Clinical Laboratory Standards (NCCLS) Document M7-A4 (NCCLS, 1997); (2) the guidelines of the National Committee for Clinical Laboratory Standards (NCCLS) Document M11-A4 (NCCLS, 1997); and (3) the guidelines and reference method of the National Committee for Clinical Laboratory Standards (NCCLS) Document M27 -T (NCCLS, 1995). For antifungal assays, the method recommended in Murray, PR., 1995 Manual of Clinical Microbiology (ASM Press, Washington, D.C.), was employed.
(§3) (MIC values are keyed in the same manner as Table B.)

[2] = tested on: S. pneumoniae (ATCC 51422, PRSP); conditions: S. pneumoniae ATCC 51422, penicillin resistant strain (PRSP)
Source text: as §1, §2, §3

E. faecalis ATCC 29212 = assay: MIC, NCCLS broth microdilution assay; type: cell-based, Enterococcus faecalis; conditions: E. faecalis ATCC 29212
S. aureus ATCC 27660 = assay: MIC, NCCLS broth microdilution assay; type: cell-based, Staphylococcus aureus; conditions: S. aureus ATCC 27660, methicillin resistant strain (MRSA)
E. coli ATCC 25922 = assay: MIC, NCCLS broth microdilution assay; type: cell-based, Escherichia coli; conditions: E. coli ATCC 25922
S. aureus ATCC 33591 = assay: MIC, NCCLS broth microdilution assay; type: cell-based, Staphylococcus aureus; conditions: S. aureus ATCC 33591
C. albicans ATCC 38247 = assay: MIC, antifungal assay; type: cell-based, Candida albicans; conditions: C. albicans ATCC 38247
B. cereus ATCC 11778 = assay: MIC, NCCLS broth microdilution assay; type: cell-based, Bacillus cereus; conditions: B. cereus ATCC 11778
[3] = tested on: S. epidermidis ATCC 12228; assay: MIC, NCCLS broth microdilution assay; type: cell-based, Staphylococcus epidermidis

Row | SMILES | Minimum Inhibitory Concentration (MIC) (S. pneumoniae ATCC 49619) | Minimum Inhibitory Concentration (MIC) (S. aureus ATCC 13709) | Minimum Inhibitory Concentration (MIC) [1] | Minimum Inhibitory Concentration (MIC) [2] | Minimum Inhibitory Concentration (MIC) (E. faecalis ATCC 29212) | Minimum Inhibitory Concentration (MIC) (S. aureus ATCC 27660) | Minimum Inhibitory Concentration (MIC) (E. coli ATCC 25922) [µg/mL] | Minimum Inhibitory Concentration (MIC) (S. aureus ATCC 33591) | Minimum Inhibitory Concentration (MIC) (C. albicans ATCC 38247) | Minimum Inhibitory Concentration (MIC) (B. cereus ATCC 11778) | Minimum Inhibitory Concentration (MIC) [3]
1 | NCCCNc1snc(C(=O)Nc2ccc(-c3cc4ccccc4o3)cc2)c1Cl [Compound A-2] | + (12 ≦ MIC ≦ 32) | +++ (MIC ≦ 4) | +++ (MIC ≦ 4) | + (12 ≦ MIC ≦ 32) | +++ (MIC ≦ 4) | +++ (MIC ≦ 4) | >32 | +++ (MIC ≦ 4) | ++ (4 < MIC < 12) | +++ (MIC ≦ 4) | +++ (MIC ≦ 4)
2 | NCCNc1snc(C(=O)Nc2ccc(-c3cc4ccccc4o3)cc2)c1Cl [Compound A-3] | + (12 ≦ MIC ≦ 32) | +++ (MIC ≦ 4) | +++ (MIC ≦ 4) | + (12 ≦ MIC ≦ 32) | +++ (MIC ≦ 4) | +++ (MIC ≦ 4) | >32 | +++ (MIC ≦ 4) | +++ (MIC ≦ 4) | + (12 ≦ MIC ≦ 32) | +++ (MIC ≦ 4)
3 | CN(C)CCCNc1snc(C(=O)Nc2ccc(-c3cc4ccccc4o3)cc2)c1Cl [Compound A-7] | + (12 ≦ MIC ≦ 32) | +++ (MIC ≦ 4) | +++ (MIC ≦ 4) | + (12 ≦ MIC ≦ 32) | +++ (MIC ≦ 4) | +++ (MIC ≦ 4) | >32 | +++ (MIC ≦ 4) | ++ (4 < MIC < 12) | +++ (MIC ≦ 4) | +++ (MIC ≦ 4)
4 | CN(C)CCCNc1ncccc1C(=O)Nc1ccc(-c2cc3ccccc3o2)cc1 [Compound A-11] | + (12 ≦ MIC ≦ 32) | +++ (MIC ≦ 4) | +++ (MIC ≦ 4) | + (12 ≦ MIC ≦ 32) | +++ (MIC ≦ 4) | +++ (MIC ≦ 4) | >32 | +++ (MIC ≦ 4) | +++ (MIC ≦ 4) | +++ (MIC ≦ 4) | +++ (MIC ≦ 4)
5 | Cc1cc(NC(=O)c2nsc(NCCCN)c2Cl)ccc1-c1cc2ccccc2o1 [Compound A-34] | + (12 ≦ MIC ≦ 32) | +++ (MIC ≦ 4) | +++ (MIC ≦ 4) | + (12 ≦ MIC ≦ 32) | +++ (MIC ≦ 4) | +++ (MIC ≦ 4) | >32 | +++ (MIC ≦ 4) | +++ (MIC ≦ 4) | +++ (MIC ≦ 4) | +++ (MIC ≦ 4)
6 | Cc1ccc2nc(-c3ccc(NC(=O)c4nsc(NCCCN)c4Cl)cc3)sc2c1 [Compound A-53] | >32 µg/mL | +++ (MIC ≦ 4) | +++ (MIC ≦ 4) | + (12 ≦ MIC ≦ 32) | +++ (MIC ≦ 4) | +++ (MIC ≦ 4) | >32 | +++ (MIC ≦ 4) | >32 µg/mL | +++ (MIC ≦ 4) | +++ (MIC ≦ 4)
7 | NCCCCNc1snc(C(=O)Nc2ccc(-c3cc4ccccc4s3)nc2)c1Cl [Compound A-68] | >32 µg/mL | +++ (MIC ≦ 4) | +++ (MIC ≦ 4) | >32 µg/mL | +++ (MIC ≦ 4) | +++ (MIC ≦ 4) | >32 | +++ (MIC ≦ 4) | +++ (MIC ≦ 4) | +++ (MIC ≦ 4) | +++ (MIC ≦ 4)

— patent US7498349B2, “Biaryl compounds having anti-infective activity” (Genesoft Pharmaceuticals, Inc., priority 2002, dated 2009)
